Data taken from patent publication US20090137577A1, “HETEROCYCLIC COMPOUNDS” (Pfizer Inc., priority 2007, published 2009).

Molecular target: T1, mGluR2 receptor (metabotropic glutamate receptor 2) (Homo sapiens, UniProt Q14416)
T1 construct: expressed in transfected cells
Assay: mGluR2 potentiator screen (FLIPR, EC10-EC20 glutamate challenge);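 further: HEK cells stably expressing human mGluR2 with GL15 G protein, Fluo-4 calcium fluorescence read on FLIPR, compounds added before an EC10-EC20 glutamate challenge to detect potentiation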
Type: cell-based
Conditions: geometric mean; read-out: mGluR 2 EC50 (geometric mean)

T1 sequence (Q14416 19-872, species assumed): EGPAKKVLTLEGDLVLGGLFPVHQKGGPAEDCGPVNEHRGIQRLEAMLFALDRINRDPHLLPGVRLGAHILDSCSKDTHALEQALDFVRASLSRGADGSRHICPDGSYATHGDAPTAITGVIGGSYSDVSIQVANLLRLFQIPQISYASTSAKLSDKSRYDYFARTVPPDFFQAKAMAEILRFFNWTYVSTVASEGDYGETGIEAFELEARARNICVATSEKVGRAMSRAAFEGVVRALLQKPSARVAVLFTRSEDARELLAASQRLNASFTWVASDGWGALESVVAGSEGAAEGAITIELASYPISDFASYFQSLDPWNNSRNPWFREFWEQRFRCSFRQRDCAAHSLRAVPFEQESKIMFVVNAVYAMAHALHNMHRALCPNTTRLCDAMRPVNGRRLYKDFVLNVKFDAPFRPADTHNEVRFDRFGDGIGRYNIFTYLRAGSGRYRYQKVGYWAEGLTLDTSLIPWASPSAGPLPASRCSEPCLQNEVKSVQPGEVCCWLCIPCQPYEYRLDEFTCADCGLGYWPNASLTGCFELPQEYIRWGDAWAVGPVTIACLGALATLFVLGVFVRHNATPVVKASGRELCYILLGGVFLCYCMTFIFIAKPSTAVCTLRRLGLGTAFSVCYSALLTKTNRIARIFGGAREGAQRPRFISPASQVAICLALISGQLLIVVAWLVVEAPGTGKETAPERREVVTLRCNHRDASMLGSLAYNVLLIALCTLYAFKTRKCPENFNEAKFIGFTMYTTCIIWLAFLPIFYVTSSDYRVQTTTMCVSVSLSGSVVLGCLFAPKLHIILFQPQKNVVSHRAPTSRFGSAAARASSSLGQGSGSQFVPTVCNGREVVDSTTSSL

Row | Structure (SMILES) | EC50
1 | COc1ccc(-c2ccc(CN3C[C@@H](C)OC3=O)cc2)c(F)c1F [Example 242] | < 17.2 nM
2 | C[C@@H]1CN(Cc2ccc(-c3ccc(C(F)(F)F)cc3C(F)(F)F)nc2)C(=O)O1 [Example 276] | 788 nM
3 | Cc1ccccc1COc1ccc(CN2C[C@@H](C)OC2=O)cc1 [Example 186] | 89 nM
4 | C[C@@H]1CN(Cc2ccc(-c3ccc(C(F)(F)F)cc3Cl)cc2)C(=O)O1 [Example 272] | 20.1 nM
5 | CC1(C)CN(Cc2ccc(-c3ccc(F)cc3F)cc2)C(=O)O1 [Example 314] | 18 nM
6 | CCC1CN(Cc2ccc(-c3ccc(F)cc3F)cc2)C(=O)O1 (stereo not drawn) [Example 315] | 41.4 nM
7 | CCC(COc1ccc(CN2CC(C)OC2=O)cc1)(c1ccccc1)N(C)C (stereo not drawn) [Example 141] | 995 nM
8 | C[C@@H]1CN(Cc2ccc(Oc3ccc(F)cc3)cc2)C(=O)O1 [Example 179] | 137 nM
9 | CC(Oc1ccc(CN2CC(c3cccnc3)OC2=O)cc1)C1CCCCC1 (stereo not drawn) [Example 208] | 41.6 nM
10 | C[C@@H]1CN(Cc2ccc(-c3ccc4c(c3)OCCCO4)cc2)C(=O)O1 [Example 189] | 83.7 nM
11 | Cc1cc(-c2ccc(CN3C[C@@H](C)OC3=O)cc2)ccc1F [Example 160] | 10.6 nM
12 | C[C@@H]1CN(Cc2ccc(-c3ccc(C(F)(F)F)cc3F)cc2)C(=O)O1 [Example 234] | < 34.5 nM
13 | CC(Oc1ccc(CN2CC(c3ccccn3)OC2=O)cc1)C1CCCCC1 (stereo not drawn) [Example 207] | 63.5 nM
14 | C[C@@H]1CN(Cc2ccc(-c3ccc(N(C)C)nc3)cc2)C(=O)O1 [Example 155] | 489 nM
15 | COc1cc(COc2ccc(CN3CC(C)OC3=O)cc2)ccc1F (stereo not drawn) [Example 127] | 1680 nM
16 | CC1CN(Cc2ccc(OCc3ccc(Cl)cc3)cc2)C(=O)O1 (stereo not drawn) [Example 89] | 69.2 nM
17 | C[C@@H]1CN(Cc2ccc(-c3ccc(Cl)cc3OC(F)(F)F)cc2)C(=O)O1 [Example 316] | 50.4 nM
18 | O=C1OCCCN1Cc1ccc(OCC2CCC2)cc1 [Example 28] | 1240 nM

Row | Structure (SMILES) | EC50
19 | C[C@@H]1CN(Cc2ccc(OCCC3CCCCC3)c(Cl)c2)C(=O)O1 [Example 287, (5R)-3-[3-chloro-4-(2-cyclohexylethoxy)benzyl]-5-methyl-1,3-oxazolidin-2-one] | 174 nM
20 | C[C@@H]1CN(Cc2ccc(-c3c(F)cccc3F)cc2)C(=O)O1 [Example 247] | 211 nM
21 | O=C1OC(c2ccccc2)CN1Cc1ccc(OCc2ccccn2)cc1 (stereo not drawn) [Example 5] | 1280 nM
22 | C[C@@H]1CN(Cc2ccc(-c3cccc(F)c3F)c(F)c2)C(=O)O1 [Example 289] | 93.7 nM
23 | Cc1oc(-c2ccccc2)nc1CCOc1ccc(CN2CC(C)OC2=O)cc1 (stereo not drawn) [Example 107] | 273 nM
24 | CC1CN(Cc2ccc(OCc3ccc(Cl)cc3F)cc2)C(=O)O1 (stereo not drawn) [Example 88] | 66.6 nM
25 | COc1ccc(F)cc1-c1ccc(CN2C[C@@H](C)OC2=O)cn1 [Example 267] | 1160 nM
26 | COc1ccc(Cl)cc1-c1ccc(CN2C[C@@H](C)OC2=O)cc1 [Example 196] | 48.9 nM
27 | CCCOc1ccc(CN2C(=O)O[C@H](c3ccccc3)[C@@H]2C)cc1 [Example 23] | 887 nM
28 | CC1CN(Cc2ccc(OCc3ccc(-n4cccn4)cc3)cc2)C(=O)O1 (stereo not drawn) [Example 131] | 125 nM
29 | Cc1cc(Cl)ccc1-c1ccc(CN2C[C@@H](C)OC2=O)cc1 [Example 236] | 49 nM
30 | CC1CN(Cc2ccc(O[C@@H](C)c3ccccc3)cc2)C(=O)O1 (stereo partly drawn) [Example 144] | 84.8 nM
31 | Cc1ccc(F)cc1-c1ccc(CN2C[C@@H](C)OC2=O)cc1 [Example 248] | 53.7 nM
32 | CCc1ccccc1-c1ccc(CN2C[C@@H](C)OC2=O)cc1 [Example 167] | < 13.4 nM
33 | Cc1ccccc1-c1ccc(CN2C[C@@H](C)OC2=O)cc1 [Example 180] | 52 nM
34 | COc1ccc(C(C)C)cc1-c1ccc(CN2C[C@@H](C)OC2=O)cn1 [Example 282] | 1470 nM
35 | CCC(C)CCOc1ccc(CN2C[C@@H](C)OC2=O)cc1 (stereo partly drawn) [Example 212] | 77.8 nM
36 | C[C@H]1[C@@H](c2ccccc2)OC(=O)N1Cc1ccc(OCc2ccccn2)cc1 [Example 25] | 1760 nM
